Here are results for 12 molecules from patent US6706740B2, “Fungicidal heterocyclic aromatic amides and their compositions, methods of use and preparation” (Dow AgroSciences LLC, priority 1999, dated 2004).

Where two headings read alike, the source gives them in different places.

For assay [1], the system named is Magnaporthe grisea (Pyricularia oryzae—PYRIOR). The assay is described as follows: microbe, parasite or virus in culture. It is filed as cell-based. The conditions noted are these: Pyricularia oryzae, read-out: PYRIOR in vitro Growth Inhibition.
Assay [2] concerns Rhizoctonia solani (RHIZSO). Briefly: microbe, parasite or virus in culture. The conditions noted are these: Rhizoctonia solani, read-out: RHIZSO in vitro Growth Inhibition. It is filed as cell-based.
For assay [3], the system named is Mycosphaerella graminicola (Septoria tritici—SEPTTR). Briefly: In vitro fungal growth inhibition, Mycosphaerella graminicola (SEPTTR). It is filed as cell-based. To be noted: Zymoseptoria tritici, read-out: SEPTTR in vitro Growth Inhibition.
For assay [4], the system named is Stagonospora nodorum (Leptosphaeria nodorum—LEPTNO). Briefly: In vitro fungal growth inhibition, Stagonospora nodorum (LEPTNO). It is filed as cell-based. The conditions noted are these: Leptosphaeria, read-out: LEPTNO in vitro Growth Inhibition.
The subject of a further assay is Ustilago maydis (USTIMA). The assay is described as follows: microbe, parasite or virus in culture. It is filed as cell-based. To be noted: Mycosarcoma maydis, read-out: USTIMA in vitro Growth Inhibition.
Assay [5] has as its system Phytophthora infestans (PHYTIN). Briefly: microbe, parasite or virus in culture. It is filed as cell-based. The conditions noted are these: Phytophthora infestans, read-out: PHYTIN in vitro Growth Inhibition.
Assay [6] relates to Phytophthora infestans—PHYTIN. The assay is described as follows: whole plant or invertebrate. It is filed as in vivo. To be noted: Phytophthora, in Solanum lycopersicum, 24 h, read-out: PHYTIN in vivo 1 Day Protectant.
For assay [7], the system named is Puccinia recondita—PUCCRT. Briefly: Brown Rust of Wheat, in vivo whole plant, 24 Hour Protectant. The conditions noted are these: for pest or weed control at 100 ppm: Puccinia, read-out: PUCCRT in vivo 1 Day Protectant.
The next assay concerns Erysiphe graminis—ERYSGT. Briefly: Powdery Mildew of Wheat, in vivo whole plant, 24 Hour Protectant. To be noted: for pest or weed control at 100 ppm: Erysiphe, read-out: ERYSGT in vivo 1 Day Protectant.
In another assay the test system is Septoria tritici—SEPTTR. The assay is described as follows: Leaf Blotch of Wheat, in vivo whole plant, 24 Hour Protectant. To be noted: for pest or weed control at 100 ppm: Zymoseptoria tritici, 24 h, control of fungal infection vs untreated plants, read-out: SEPTTR in vivo 1 Day Protectant.
Assay [8] relates to Leptosphaeria nodorum—LEPTNO. Briefly: Glume Blotch of Wheat, in vivo whole plant, 24 Hour Protectant. To be noted: for pest or weed control at 100 ppm: Leptosphaeria, read-out: LEPTNO in vivo 1 Day Protectant.
Setting [9] is: 100 ppm spray, wheat, 24 hour protectant, control of fungal infection vs untreated plants.
Setting [10] is: 100 ppm spray, wheat, 24 hour protectant.
The mark [11] stands for this setting: wheat plants sprayed at 100 ppm, inoculated after 24 hours, control of fungal infection vs untreated plants.
Setting [12] is: 100 ppm spray, 24 hour protectant, wheat, control of fungal infection vs untreated plants.
The mark [13] stands for this setting: 100 ppm spray, 24 hour protectant, wheat.
[14] abbreviates: 100 ppm spray, wheat, 24 hour protectant, % control of fungal infection vs untreated plants.

Take `COc1ccnc(C(=O)Nc2ccccc2Oc2ccc(C#N)cc2)c1O` [Compound 419]: the inhibition at 25 ppm (in [1]; in assay [2]; in assay [3] (25 ppm in growth medium); in assay [4] (25 ppm in growth medium); in the assay with Ustilago maydis (USTIMA); in [5]) was under 80% in each case. Also, the pest or weed control at 100 ppm in [6] is 25 to 74%; in [7] (setting [9]) it was under 25%; in the assay on Erysiphe graminis—ERYSGT (setting [9]), under 25%; in the assay with Septoria tritici—SEPTTR (setting [10]), under 25%; in [8] (setting [9]), under 25%.
As to `O=C(Nc1ccc(Oc2ccc(C(F)(F)F)cc2)cc1)c1nc(Br)ccc1O` [Compound 499], the inhibition at 25 ppm (in [1]; in assay [2]; in [3] (25 ppm in the growth medium); in assay [4] (25 ppm in the growth medium); in the assay on Ustilago maydis (USTIMA); in assay [5]) was under 80% each time. Besides, the pest or weed control at 100 ppm in assay [6] was under 25%; in assay [7] (setting [11]) it was 25 to 74%; with Erysiphe graminis—ERYSGT (setting [11]) it was under 25%; with Septoria tritici—SEPTTR (wheat plants sprayed at 100 ppm, inoculated after 24 hours), under 25%; in assay [8] (setting [11]), 25 to 74%.
For `COc1ccnc(C(=O)NC2CC(C)(C)C=CC=C2C)c1O` (stereo not drawn) [Compound 278], the inhibition at 25 ppm (in assay [1]; in assay [2]; in [3] (25 ppm in growth medium); in assay [4] (25 ppm in growth medium); in the assay on Ustilago maydis (USTIMA); in assay [5]) was under 80% in each case. Besides, the pest or weed control at 100 ppm in [6] was under 25%; in assay [7] (setting [12]), 25 to 74%; in the assay on Erysiphe graminis—ERYSGT (setting [12]) it was under 25%; with Septoria tritici—SEPTTR (setting [13]), 25 to 74%; in assay [8] (setting [12]), 25 to 74%.
As to `COc1ccnc(C(=O)NC2CC(C)(C)C(OC)C(C)(C)C2)c1O` (stereo not drawn) [Compound 265], the inhibition at 25 ppm (in [1]; in assay [2]; in assay [3] (25 ppm in growth medium); in assay [4] (25 ppm in growth medium); in the assay with Ustilago maydis (USTIMA); in assay [5]) was under 80% throughout. The pest or weed control at 100 ppm in assay [6] is under 25%; in [7] (setting [12]) it was under 25%; in the assay with Erysiphe graminis—ERYSGT (setting [12]), 25 to 74%; in the assay on Septoria tritici—SEPTTR (setting [13]) it was 25 to 74%; in assay [8] (setting [12]), 25 to 74%.
Turning to `C[C@@H](NC(=O)c1ncccc1O)c1cccc2ccccc12` [Compound 231], the inhibition – broadly, the share of the control response that was lost under treatment – at 25 ppm was over 80% in assay [1]; under 80% in assay [2]; under 80% in assay [3] (25 ppm in growth medium); under 80% in [4] (25 ppm in growth medium); under 80% with Ustilago maydis (USTIMA); under 80% in assay [5]. Also, the pest or weed control at 100 ppm (in assay [6]; in assay [7] (setting [12]); in the assay on Erysiphe graminis—ERYSGT (setting [12]); with Septoria tritici—SEPTTR (setting [13]); in [8] (setting [12])) was under 25% throughout.
For `COc1ccnc(C(=O)N[C@H]2COC(=O)[C@H](Cc3ccccc3)[C@@H](OC(=O)C(C)C)[C@H](C)OC2=O)c1OC(=O)c1ccco1` [Compound 673], the inhibition at 25 ppm (in assay [1]; in assay [2]; in assay [3] (25 ppm in growth medium); in [4] (25 ppm in growth medium); in the assay with Ustilago maydis (USTIMA); in [5]) was under 80% each time. The pest or weed control at 100 ppm (in assay [6]; in the assay on Erysiphe graminis—ERYSGT (setting [14])) was under 25% throughout. For the same molecule, in assay [7] (setting [14]), the “PUCCRT in vivo 1 Day Protectant” value is recorded as “+ +”. For the same molecule, in the assay with Septoria tritici—SEPTTR (setting [14]), the “SEPTTR in vivo 1 Day Protectant” value is reported as “+ +”. Further, the “LEPTNO in vivo 1 Day Protectant” value in [8] (setting [14]) is reported as “+ +”.
`COc1ccnc(C(=O)N[C@H]2COC(=O)[C@H](Cc3ccccc3)[C@@H](OC(=O)C(C)C)[C@H](C)OC2=O)c1OC(=O)Cc1ccccc1` [Compound 648]: the inhibition at 25 ppm was over 80% in [1]; under 80% in assay [2]; under 80% in assay [3]; under 80% in [4]; under 80% in the assay on Ustilago maydis (USTIMA); under 80% in assay [5]. For the same molecule, the pest or weed control at 100 ppm in assay [6] was under 25%. Also, the “PUCCRT in vivo 1 Day Protectant” value in assay [7] (in vivo) is “+ +”. Further, the “ERYSGT in vivo 1 Day Protectant” value with Erysiphe graminis—ERYSGT (in vivo) is reported as “+ +”. In addition, the “SEPTTR in vivo 1 Day Protectant” value in the assay on Septoria tritici—SEPTTR (in vivo) is recorded as “+ +”. The “LEPTNO in vivo 1 Day Protectant” value in [8] (in vivo) is listed as “+ +”.
Turning to `COc1ccnc(C(=O)NC(COC(=O)C(C)Cc2ccccc2)C(=O)OC(C)C)c1O` (stereo not drawn) [Compound 351], the inhibition at 25 ppm in assay [1] was under 80%; in assay [2], under 80%; in assay [3] (25 ppm in growth medium), under 80%; in [4] (25 ppm in growth medium), under 80%; in the assay on Ustilago maydis (USTIMA), over 80%; in [5], under 80%. Besides, the pest or weed control at 100 ppm in assay [6] was under 25%; in the assay with Erysiphe graminis—ERYSGT (setting [9]) it was under 25%; with Septoria tritici—SEPTTR (setting [10]), under 25%; in [8] (setting [9]), 25 to 74%. Further, in assay [7] (setting [9]), the “PUCCRT in vivo 1 Day Protectant” value is “+ +”.
Turning to `COc1ccnc(C(=O)NC2CC(C)(C)CC(C)(C(=O)OCCC(C)(C)C)C2)c1O` (stereo not drawn) [Compound 261], the inhibition at 25 ppm in assay [1] is under 80%; in assay [2], under 80%; in assay [3] (25 ppm in growth medium) it was over 80%; in [4] (25 ppm in growth medium), over 80%; in the assay on Ustilago maydis (USTIMA), under 80%; in assay [5], over 80%. The pest or weed control at 100 ppm in assay [6] was 25 to 74%; in [7] (setting [12]) it was 25 to 74%; with Erysiphe graminis—ERYSGT (setting [12]), under 25%; with Septoria tritici—SEPTTR (setting [13]), 25 to 74%; in assay [8] (setting [12]) it was 25 to 74%.
Turning to `Cc1cccc(CNC(=O)c2ncccc2O)c1` [Compound 222], the inhibition at 25 ppm (in assay [1]; in [2]; in [3] (25 ppm in growth medium); in [4] (25 ppm in growth medium); in the assay with Ustilago maydis (USTIMA); in [5]) was under 80% throughout. Moreover, the pest or weed control at 100 ppm in assay [6] is under 25%; in assay [7] (setting [12]) it was 25 to 74%; in the assay on Erysiphe graminis—ERYSGT (setting [12]), under 25%; with Septoria tritici—SEPTTR (setting [13]), under 25%; in assay [8] (setting [12]) it was under 25%.
`COc1ccnc(C(=O)NC(C(=O)OCC(C)C)C(C)OC(=O)C(C)Cc2ccccc2)c1O` (stereo not drawn) [Compound 360]: the inhibition at 25 ppm (in assay [1]; in assay [2]; in assay [3] (25 ppm in growth medium); in assay [4] (25 ppm in growth medium); with Ustilago maydis (USTIMA); in assay [5]) was under 80% in each case. Moreover, the pest or weed control at 100 ppm was under 25% in assay [6], 25 to 74% in assay [7] (setting [9]), under 25% in the assay on Erysiphe graminis—ERYSGT (setting [9]) and 25 to 74% in the assay on Septoria tritici—SEPTTR (setting [10]). For the same molecule, the “LEPTNO in vivo 1 Day Protectant” value in assay [8] (setting [9]) was “+ +”.
Turning to `COc1ccnc(C(=O)Nc2ccccc2Oc2cccc(Cl)c2)c1O` [Compound 437], the inhibition at 25 ppm in assay [1] was under 80%; in [2], under 80%; in assay [3] (25 ppm in growth medium), over 80%; in assay [4] (25 ppm in growth medium), under 80%; in the assay with Ustilago maydis (USTIMA), under 80%; in assay [5] it was under 80%. The pest or weed control at 100 ppm in assay [6] was 25 to 74%; in [7] (setting [9]), under 25%; in the assay on Erysiphe graminis—ERYSGT (setting [9]), under 25%; in the assay on Septoria tritici—SEPTTR (setting [10]), under 25%; in assay [8] (setting [9]), under 25%.
